# ChEMBL document CHEMBL5154885, “Synthesis and biological evaluation of Haspin inhibitors: Kinase inhibitory potency and cellular activity” (Eur J Med Chem, 2022)
# Experiments:
# [1] = molecular target: Dual specificity tyrosine-phosphorylation-regulated kinase 1A (Rattus norvegicus, UniProt Q63470); assay: Inhibition of recombinant rat DYRK1A (1 to 499 residues ) expressed in bacterial expression system using KKISGRLSPIMTEQ as substrate measured after 30 mins in presence of ATP by ADP-Glo assay
# [2] = molecular target: Dual specificity protein kinase CLK1 (Mus musculus, UniProt P22518); assay: Inhibition of recombinant mouse CLK1 expressed in bacteria using GRSRSRSRSRSR as substrate in presence of ATP measured after 30 mins by ADP-Glo assay
# [3] = molecular target: T1, Serine/threonine-protein kinase haspin (Homo sapiens, UniProt Q8TF76)
# T1 sequence (Q8TF76 whole entry): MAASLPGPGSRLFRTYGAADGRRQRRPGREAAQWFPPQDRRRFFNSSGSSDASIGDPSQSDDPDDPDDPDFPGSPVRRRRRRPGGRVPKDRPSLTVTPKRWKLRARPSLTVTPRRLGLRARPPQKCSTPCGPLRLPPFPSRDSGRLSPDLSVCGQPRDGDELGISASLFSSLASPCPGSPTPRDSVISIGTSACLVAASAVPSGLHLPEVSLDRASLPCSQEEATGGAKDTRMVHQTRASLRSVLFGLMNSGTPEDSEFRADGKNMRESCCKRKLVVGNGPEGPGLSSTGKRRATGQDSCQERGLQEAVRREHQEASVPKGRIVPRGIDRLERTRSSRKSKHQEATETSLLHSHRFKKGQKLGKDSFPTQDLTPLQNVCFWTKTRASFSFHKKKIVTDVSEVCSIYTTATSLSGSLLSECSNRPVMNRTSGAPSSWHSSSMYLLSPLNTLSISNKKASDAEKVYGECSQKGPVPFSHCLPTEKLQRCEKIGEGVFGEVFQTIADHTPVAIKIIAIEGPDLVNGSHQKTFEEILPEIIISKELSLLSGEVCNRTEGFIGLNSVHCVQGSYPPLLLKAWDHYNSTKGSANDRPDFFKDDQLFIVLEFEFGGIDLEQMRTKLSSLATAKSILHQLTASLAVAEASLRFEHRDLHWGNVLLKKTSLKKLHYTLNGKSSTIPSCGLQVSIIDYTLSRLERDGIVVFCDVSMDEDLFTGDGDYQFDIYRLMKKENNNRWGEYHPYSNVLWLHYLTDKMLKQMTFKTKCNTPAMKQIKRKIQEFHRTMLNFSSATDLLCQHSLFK
# [4] = molecular target: Cyclin-dependent kinase 5/CDK5 activator 1 (Homo sapiens, UniProt Q00535); assay: Inhibition of human recombinant CDK5/p25 expressed in bacterial expression system using histone H1 as substrate in presence of ATP at measured after 30 mins by ADP-Glo assay
# [5] = molecular target: Tyrosine-protein kinase ABL1 (Homo sapiens, UniProt P00519); assay: Inhibition of human recombinant ABL1 expressed in baculovirus sf9 insect cells using EAIYAAPFAKKK as substrate measured after 30 mins in presence of ATP by ADP-Glo assay
# [6] = molecular target: Glycogen synthase kinase-3 beta (Homo sapiens, UniProt P49841); assay: Inhibition of human recombinant GSK3beta expressed in baculovirus in Sf9 insect cells using YRRAAVPPSPSLSRHSSPHQSpEDEEE as substrate measured after 30 mins by ADP-Glo kinase assay
# [7] = molecular target: Casein kinase I isoform epsilon (Homo sapiens, UniProt P49674); assay: Inhibition of human recombinant CK1 epsilon expressed in baculovirus in sf9 insect cells using RRKHAAIGSpAYSITA as substrate in presence of ATP measured after 30 mins by ADP-Glo assay
# [8] = molecular target: Serine/threonine-protein kinase pim-1 (Homo sapiens, UniProt P11309); assay: Inhibition of recombinant human PIM1 expressed in bacterial expression system using histone H1 as substrate measured after 30 mins in presence of ATP by ADP-Glo assay
# [9] = molecular target: T2, Tyrosine-protein kinase JAK3 (Homo sapiens, UniProt P52333); assay: Inhibition of human recombinant JAK3 expressed in baculovirus sf9 insect cells using GGEEEEYFELVKKKK as substrate measured after 30 mins in presence of ATP by ADP-Glo assay
# T2 sequence (P52333 whole entry): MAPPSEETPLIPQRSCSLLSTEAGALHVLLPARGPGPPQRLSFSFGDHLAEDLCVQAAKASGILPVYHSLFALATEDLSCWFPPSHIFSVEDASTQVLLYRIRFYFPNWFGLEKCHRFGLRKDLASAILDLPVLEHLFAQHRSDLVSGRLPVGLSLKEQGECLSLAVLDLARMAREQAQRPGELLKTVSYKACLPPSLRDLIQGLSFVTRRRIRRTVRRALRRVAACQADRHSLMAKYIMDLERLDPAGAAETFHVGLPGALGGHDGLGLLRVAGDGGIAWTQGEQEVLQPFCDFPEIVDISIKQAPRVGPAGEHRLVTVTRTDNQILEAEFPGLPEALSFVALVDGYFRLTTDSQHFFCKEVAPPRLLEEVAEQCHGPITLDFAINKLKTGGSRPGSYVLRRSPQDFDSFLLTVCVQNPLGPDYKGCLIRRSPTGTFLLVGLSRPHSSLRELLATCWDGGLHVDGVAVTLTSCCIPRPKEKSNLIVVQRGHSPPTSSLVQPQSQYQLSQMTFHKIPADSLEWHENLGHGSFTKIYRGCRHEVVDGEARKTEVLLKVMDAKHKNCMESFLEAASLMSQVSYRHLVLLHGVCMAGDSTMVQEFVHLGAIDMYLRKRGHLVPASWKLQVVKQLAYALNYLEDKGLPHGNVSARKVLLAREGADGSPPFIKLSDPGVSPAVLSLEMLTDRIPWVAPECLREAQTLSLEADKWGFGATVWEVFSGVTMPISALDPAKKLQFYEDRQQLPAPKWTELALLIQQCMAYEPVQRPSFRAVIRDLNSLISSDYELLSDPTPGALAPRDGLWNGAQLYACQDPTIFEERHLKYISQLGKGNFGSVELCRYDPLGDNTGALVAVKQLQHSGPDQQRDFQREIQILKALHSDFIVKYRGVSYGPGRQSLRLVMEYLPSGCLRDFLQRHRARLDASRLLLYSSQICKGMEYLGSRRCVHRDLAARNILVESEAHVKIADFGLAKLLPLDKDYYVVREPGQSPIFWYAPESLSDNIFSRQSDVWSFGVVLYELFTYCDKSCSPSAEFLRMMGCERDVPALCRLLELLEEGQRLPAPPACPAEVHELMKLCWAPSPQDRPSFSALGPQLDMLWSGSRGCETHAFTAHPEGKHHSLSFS
# [10] = molecular target: Serine/threonine-protein kinase PLK2 (Homo sapiens, UniProt Q9NYY3); assay: Inhibition of human PLK2 in presence of ATP by kinomescan assay
# [11] = molecular target: Death-associated protein kinase 3 (Homo sapiens, UniProt O43293); assay: Inhibition of human DAPK3 in presence of ATP by kinomescan assay
# [12] = molecular target: Serine/threonine-protein kinase PLK3 (Homo sapiens, UniProt Q9H4B4); assay: Inhibition of human recombinant PLK3 in presence of ATP by kinomescan assay
# [13] = molecular target: Serine/threonine-protein kinase PLK1 (Homo sapiens, UniProt P53350); assay: Inhibition of human PLK1 in presence of ATP by kinomescan assay
# [14] = Cytotoxicity against human TERT-RPE1 cells assessed as reduction in cell viability measured after 48 hrs by MTS assay; format: toxicity, cell-based
# HBL-100 = assay: Cytotoxicity against human HBL-100 cells assessed as reduction in cell viability measured after 48 hrs by MTS assay; settings: HBL-100, 48 h
# SH-SY5Y = assay: Cytotoxicity against human SH-SY5Y cells assessed as reduction in cell viability measured after 48 hrs by MTS assay
# [15] = Inhibition of human recombinant CDK9 expressed in baculovirus insect Sf9 cells using YSPTSPSYSPTSPSYSPTSPSKKKK as substrate measured after 30 mins in presence of ATP by ADP-Glo assay
# HCT-116 = assay: Cytotoxicity against human HCT-116 cells assessed as reduction in cell viability measured after 48 hrs by MTS assay; settings: HCT-116, 48 h
# U2OS = assay: Cytotoxicity against human U2OS cells assessed as reduction in cell viability measured after 48 hrs by MTS assay
# Chain of Dual specificity protein kinase CLK1 (P22518 whole entry): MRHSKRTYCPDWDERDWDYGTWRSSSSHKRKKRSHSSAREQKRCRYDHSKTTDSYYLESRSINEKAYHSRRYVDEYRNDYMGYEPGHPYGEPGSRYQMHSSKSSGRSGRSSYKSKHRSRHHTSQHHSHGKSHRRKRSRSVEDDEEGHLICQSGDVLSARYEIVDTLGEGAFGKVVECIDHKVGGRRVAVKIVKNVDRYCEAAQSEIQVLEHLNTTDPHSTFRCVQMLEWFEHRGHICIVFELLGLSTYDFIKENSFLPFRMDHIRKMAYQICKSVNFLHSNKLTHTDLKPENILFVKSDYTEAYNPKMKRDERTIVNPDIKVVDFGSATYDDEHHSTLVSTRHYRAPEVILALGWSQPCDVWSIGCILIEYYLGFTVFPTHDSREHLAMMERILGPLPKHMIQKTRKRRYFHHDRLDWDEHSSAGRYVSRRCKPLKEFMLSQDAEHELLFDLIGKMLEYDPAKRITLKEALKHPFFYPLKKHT
# Chain of Glycogen synthase kinase-3 beta (P49841 whole entry, canonical isoform): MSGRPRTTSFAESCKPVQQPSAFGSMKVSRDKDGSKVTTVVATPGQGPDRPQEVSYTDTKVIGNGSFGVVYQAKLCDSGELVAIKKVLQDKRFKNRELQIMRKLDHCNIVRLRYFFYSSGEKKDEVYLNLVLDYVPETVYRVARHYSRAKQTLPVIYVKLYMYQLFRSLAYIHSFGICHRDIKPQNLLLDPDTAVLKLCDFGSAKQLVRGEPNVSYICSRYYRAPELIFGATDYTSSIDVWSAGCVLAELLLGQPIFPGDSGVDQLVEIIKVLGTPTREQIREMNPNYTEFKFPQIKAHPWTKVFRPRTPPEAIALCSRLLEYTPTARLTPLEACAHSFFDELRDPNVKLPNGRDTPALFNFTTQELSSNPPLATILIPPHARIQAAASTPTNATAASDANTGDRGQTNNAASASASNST
# Chain of Cyclin-dependent kinase 5/CDK5 activator 1 (Q00535 whole entry): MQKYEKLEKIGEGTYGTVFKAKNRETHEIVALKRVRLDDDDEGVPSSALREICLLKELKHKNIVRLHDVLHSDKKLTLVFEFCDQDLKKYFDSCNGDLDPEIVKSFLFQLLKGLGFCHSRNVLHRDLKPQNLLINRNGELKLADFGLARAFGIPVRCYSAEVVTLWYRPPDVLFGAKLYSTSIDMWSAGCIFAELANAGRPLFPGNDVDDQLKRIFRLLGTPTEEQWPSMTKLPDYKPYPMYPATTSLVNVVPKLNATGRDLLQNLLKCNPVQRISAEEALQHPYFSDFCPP
# Chain of Cyclin-dependent kinase 5/CDK5 activator 1 (Q15078 whole entry, further chain): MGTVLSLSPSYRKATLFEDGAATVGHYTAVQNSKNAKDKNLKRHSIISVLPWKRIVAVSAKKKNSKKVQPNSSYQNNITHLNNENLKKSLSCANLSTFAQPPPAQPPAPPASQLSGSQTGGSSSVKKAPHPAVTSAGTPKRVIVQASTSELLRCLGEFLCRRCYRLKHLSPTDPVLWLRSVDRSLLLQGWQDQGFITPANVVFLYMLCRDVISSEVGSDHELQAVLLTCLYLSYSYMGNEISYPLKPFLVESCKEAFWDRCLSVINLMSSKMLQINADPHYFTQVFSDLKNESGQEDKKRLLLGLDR
# Chain of Serine/threonine-protein kinase PLK2 (Q9NYY3 whole entry): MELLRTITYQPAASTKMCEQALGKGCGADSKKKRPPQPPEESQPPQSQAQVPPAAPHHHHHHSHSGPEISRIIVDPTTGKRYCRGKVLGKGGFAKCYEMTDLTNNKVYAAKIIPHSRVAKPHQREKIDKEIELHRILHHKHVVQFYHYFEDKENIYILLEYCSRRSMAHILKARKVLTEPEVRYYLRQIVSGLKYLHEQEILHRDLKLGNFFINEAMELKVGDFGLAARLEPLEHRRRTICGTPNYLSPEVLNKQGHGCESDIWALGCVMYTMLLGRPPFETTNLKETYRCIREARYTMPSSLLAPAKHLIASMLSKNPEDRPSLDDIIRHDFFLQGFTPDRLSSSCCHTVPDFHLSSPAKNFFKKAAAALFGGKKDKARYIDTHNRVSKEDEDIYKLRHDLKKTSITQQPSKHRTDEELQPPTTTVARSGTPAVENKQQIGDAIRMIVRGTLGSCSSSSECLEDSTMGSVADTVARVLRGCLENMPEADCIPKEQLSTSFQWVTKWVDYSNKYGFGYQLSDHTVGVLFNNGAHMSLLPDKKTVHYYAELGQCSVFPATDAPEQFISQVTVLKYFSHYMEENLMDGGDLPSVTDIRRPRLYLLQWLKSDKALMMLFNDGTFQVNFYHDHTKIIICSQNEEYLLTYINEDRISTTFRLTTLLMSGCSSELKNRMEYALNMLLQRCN
# Chain of Casein kinase I isoform epsilon (P49674 whole entry, canonical isoform): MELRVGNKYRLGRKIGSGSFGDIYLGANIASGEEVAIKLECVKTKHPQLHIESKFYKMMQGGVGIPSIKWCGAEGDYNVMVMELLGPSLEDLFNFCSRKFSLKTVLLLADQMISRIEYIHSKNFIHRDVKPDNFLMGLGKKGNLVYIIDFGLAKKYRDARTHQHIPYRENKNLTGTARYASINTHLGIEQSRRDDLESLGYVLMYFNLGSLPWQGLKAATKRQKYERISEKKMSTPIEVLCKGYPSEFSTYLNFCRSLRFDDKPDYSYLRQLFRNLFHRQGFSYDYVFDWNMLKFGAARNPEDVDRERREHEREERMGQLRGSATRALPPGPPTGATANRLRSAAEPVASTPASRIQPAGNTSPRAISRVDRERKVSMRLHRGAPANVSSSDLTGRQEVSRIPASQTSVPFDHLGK
# Chain of Tyrosine-protein kinase ABL1 (P00519 whole entry): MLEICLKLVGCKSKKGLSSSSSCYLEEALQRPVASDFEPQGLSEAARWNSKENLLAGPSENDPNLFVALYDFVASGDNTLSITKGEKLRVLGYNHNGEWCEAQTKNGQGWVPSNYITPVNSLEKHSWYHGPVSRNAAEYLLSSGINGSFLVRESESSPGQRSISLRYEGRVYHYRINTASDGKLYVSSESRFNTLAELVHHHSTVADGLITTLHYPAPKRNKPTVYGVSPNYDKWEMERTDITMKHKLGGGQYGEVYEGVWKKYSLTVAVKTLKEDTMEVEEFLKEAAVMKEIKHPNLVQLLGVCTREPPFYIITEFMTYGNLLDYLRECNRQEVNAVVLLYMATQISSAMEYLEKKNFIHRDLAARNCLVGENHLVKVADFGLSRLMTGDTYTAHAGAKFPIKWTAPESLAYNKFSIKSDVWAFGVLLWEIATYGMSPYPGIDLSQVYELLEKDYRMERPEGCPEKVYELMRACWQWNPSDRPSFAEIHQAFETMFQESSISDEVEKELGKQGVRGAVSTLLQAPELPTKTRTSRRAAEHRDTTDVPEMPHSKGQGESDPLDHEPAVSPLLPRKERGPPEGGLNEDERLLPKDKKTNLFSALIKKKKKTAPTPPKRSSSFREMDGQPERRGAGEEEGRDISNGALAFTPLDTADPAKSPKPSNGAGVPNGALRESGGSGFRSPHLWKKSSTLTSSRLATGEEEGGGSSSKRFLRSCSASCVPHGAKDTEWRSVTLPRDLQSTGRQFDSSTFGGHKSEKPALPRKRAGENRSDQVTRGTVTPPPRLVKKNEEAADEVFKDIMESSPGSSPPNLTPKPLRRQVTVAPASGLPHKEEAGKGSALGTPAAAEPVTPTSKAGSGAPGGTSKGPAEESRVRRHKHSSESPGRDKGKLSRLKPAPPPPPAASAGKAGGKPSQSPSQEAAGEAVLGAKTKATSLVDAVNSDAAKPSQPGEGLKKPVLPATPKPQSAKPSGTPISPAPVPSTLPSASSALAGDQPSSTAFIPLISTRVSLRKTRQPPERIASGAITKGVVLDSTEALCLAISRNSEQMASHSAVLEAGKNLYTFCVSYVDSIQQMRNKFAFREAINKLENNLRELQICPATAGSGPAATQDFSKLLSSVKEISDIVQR
# Chain of Serine/threonine-protein kinase pim-1 (P11309 whole entry): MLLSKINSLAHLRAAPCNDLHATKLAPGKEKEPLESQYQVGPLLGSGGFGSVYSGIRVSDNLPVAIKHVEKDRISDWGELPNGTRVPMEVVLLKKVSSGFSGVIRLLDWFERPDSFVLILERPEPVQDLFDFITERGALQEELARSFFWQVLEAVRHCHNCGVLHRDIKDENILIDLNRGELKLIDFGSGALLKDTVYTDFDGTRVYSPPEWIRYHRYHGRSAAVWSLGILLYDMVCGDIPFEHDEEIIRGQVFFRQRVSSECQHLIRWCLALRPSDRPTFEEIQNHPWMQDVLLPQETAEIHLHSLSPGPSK
# Chain of Death-associated protein kinase 3 (O43293 whole entry): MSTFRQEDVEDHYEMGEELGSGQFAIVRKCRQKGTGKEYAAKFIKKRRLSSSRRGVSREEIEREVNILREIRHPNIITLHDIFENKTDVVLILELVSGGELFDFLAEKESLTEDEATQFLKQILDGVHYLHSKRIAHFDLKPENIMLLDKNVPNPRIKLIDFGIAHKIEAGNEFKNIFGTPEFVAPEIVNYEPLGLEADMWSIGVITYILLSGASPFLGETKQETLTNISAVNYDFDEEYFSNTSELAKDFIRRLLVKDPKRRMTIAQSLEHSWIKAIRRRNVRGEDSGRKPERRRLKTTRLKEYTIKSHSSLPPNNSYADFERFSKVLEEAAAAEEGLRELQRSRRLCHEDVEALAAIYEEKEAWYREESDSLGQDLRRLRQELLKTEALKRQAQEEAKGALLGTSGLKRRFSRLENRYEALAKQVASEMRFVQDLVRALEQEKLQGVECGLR
SMILES,IC50 [1] [nM],IC50 [2] [nM],IC50 [3] [nM],other results
CC(C)Sc1ncc2cc3cnccc3c(N)c2n1,594,72,56,
CCCNc1ccc2ncc(-c3ccc4[nH]ncc4c3)n2n1,13,8,,IC50 [4]: 41 nM; IC50 [5]: 162 nM; IC50 [6]: 53 nM; IC50 [7]: 99 nM; IC50 [8]: 29 nM; IC50 [9]: 119 nM
CCCCCSc1ncc2cc3cnccc3c(N)c2n1,,,432,
CCOC(=O)CCSc1ncc2cc3cnccc3c([N+](=O)[O-])c2n1,,,897,
CCC(C)Sc1ncc2cc3cnccc3c([N+](=O)[O-])c2n1 (centres undefined),,,484,
COc1ncc2cc3cnccc3c([N+](=O)[O-])c2n1,,,,IC50 [10]: 125 nM; IC50 [11]: 578 nM; IC50 [12]: 117 nM; IC50 [13]: 294 nM; EC50 at 48 h [14]: 3200 nM
CSc1ncc2cc3cnccc3c([N+](=O)[O-])c2n1,,,119,EC50 (HBL-100): 1300 nM; EC50 (SH-SY5Y): 1200 nM; IC50 [15]: 407 nM; EC50 at 48 h [14]: 800 nM; EC50 (HCT-116): 1100 nM
Nc1ccc2cc3cnccc3c([N+](=O)[O-])c2n1,87,20,3,EC50 (HBL-100): 800 nM; EC50 (SH-SY5Y): 200 nM; IC50 [15]: 24 nM; IC50 [6]: 418 nM; EC50 at 48 h [14]: 400 nM; EC50 (HCT-116): 200 nM; EC50 (U2OS): 300 nM
CCCCSc1ncc2cc3cnccc3c(N)c2n1,132,92,69,
CSc1ncc2cc3cnccc3c(N)c2n1,47,37,12,IC50 [15]: 189 nM
CCC(C)Sc1ncc2cc3cnccc3c(N)c2n1 (centres undefined),,,202,
CCCSc1ncc2cc3cnccc3c(N)c2n1,148,90,65,
CCSc1ncc2cc3cnccc3c([N+](=O)[O-])c2n1,515,148,91,
CCCSc1ncc2cc3cnccc3c([N+](=O)[O-])c2n1,,,169,
CCCCSc1ncc2cc3cnccc3c([N+](=O)[O-])c2n1,,,1040,
CCSc1ncc2cc3cnccc3c(N)c2n1,,,124,
CC(C)Sc1ncc2cc3cnccc3c([N+](=O)[O-])c2n1,,,114,
COc1ncc2cc3cnccc3c(N)c2n1,,,159,
